Laboratory results from ChEMBL document CHEMBL1201862, “PubChem BioAssay data set” (2004).
Calls of active or inactive are those of the source.

Key:
cells = assay type: functional
[1] = Vero E6 cell cytotoxicity, dose response, cytotoxicity control for non-replicating M. tuberculosis project, secondary assay (AID 492998); assay type: functional, VeroE6; settings: Vero C1008
[2] = test system: Streptococcus sp. 'group A'; assay: Streptococcus pyogenes SK(-)GAS viability under kanamycin – luminescence, BacTiterGlo, confirmation, counter-screen for streptokinase expression inhibitor project, dose response (AID 1900); assay type: functional, organism-based
[3] = THP-1 cell cytotoxicity, dose response, cytotoxicity control for non-replicating M. tuberculosis project (AID 489025); assay type: functional
Streptococcus = assay: GAS UMAA2166 growth inhibition – luminescence, BacTiterGlo, counter-screen for streptokinase expression inhibitor project, dose response (AID 1915); assay type: functional, organism-based;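 note: potency for reduction of bacterial viability or growth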
Streptokinase A = target: T1, Streptokinase A (Streptococcus pyogenes serotype M1, UniProt P10520); assay: viability-normalized secreted streptokinase activity reduction – plasminogen activation absorbance, OD405, dose response (AID 1914); assay type: functional, Streptococcus pyogenes M1 GAS;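 note: secreted streptokinase activity via plasminogen activation per viability signal from cell pellet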
T1 sequence (P10520 whole entry): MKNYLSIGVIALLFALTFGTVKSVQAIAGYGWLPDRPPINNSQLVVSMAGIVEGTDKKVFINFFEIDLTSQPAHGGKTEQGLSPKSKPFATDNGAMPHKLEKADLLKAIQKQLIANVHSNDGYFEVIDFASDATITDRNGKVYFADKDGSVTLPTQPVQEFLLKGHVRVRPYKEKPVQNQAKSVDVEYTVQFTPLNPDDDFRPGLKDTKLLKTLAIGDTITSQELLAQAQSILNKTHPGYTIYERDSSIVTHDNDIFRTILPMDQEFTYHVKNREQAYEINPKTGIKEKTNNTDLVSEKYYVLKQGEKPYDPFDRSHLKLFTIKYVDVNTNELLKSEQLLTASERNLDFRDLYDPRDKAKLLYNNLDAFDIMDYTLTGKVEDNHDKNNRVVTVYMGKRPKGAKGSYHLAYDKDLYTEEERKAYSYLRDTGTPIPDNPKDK

[4] = target: T2, Short transient receptor potential channel 4 (Mus musculus, UniProt Q9QUQ5); assay: calcium entry via TRPC4 opening agents – cell-based, HEK293 TRPC4/mu-opioid, Fluo-4 calcium, dose response (AID 434937); assay type: functional
T2 sequence (Q9QUQ5 whole entry): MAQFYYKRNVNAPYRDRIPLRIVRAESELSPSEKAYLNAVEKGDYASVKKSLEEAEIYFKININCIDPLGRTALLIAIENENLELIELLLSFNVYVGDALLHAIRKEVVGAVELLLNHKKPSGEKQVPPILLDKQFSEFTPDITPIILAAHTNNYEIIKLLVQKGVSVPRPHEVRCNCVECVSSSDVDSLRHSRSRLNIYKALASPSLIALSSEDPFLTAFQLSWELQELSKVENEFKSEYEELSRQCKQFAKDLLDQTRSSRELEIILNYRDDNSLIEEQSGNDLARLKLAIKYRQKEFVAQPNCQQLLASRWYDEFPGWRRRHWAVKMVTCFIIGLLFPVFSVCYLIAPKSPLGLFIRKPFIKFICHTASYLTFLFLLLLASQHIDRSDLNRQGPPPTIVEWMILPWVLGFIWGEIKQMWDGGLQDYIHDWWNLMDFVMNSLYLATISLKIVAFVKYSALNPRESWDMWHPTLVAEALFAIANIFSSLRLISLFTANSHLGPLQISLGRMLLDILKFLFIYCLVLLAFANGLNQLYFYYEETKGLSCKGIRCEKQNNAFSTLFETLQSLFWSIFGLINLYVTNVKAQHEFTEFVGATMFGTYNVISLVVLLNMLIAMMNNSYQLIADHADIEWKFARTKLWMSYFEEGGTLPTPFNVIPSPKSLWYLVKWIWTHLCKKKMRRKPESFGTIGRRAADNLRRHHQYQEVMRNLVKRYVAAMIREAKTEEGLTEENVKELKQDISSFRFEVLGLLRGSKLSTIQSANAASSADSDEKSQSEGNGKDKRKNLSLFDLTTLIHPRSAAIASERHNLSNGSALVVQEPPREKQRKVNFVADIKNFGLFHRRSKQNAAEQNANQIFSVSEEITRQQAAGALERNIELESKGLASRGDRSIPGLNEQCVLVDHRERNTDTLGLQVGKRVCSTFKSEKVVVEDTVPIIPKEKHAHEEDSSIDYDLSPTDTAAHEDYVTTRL

[5] = viability of uninfected HEp-2 cells – cell-based, HTS, cytotoxicity control for RSV inhibitor project, dose response (AID 2410); assay type: functional; settings: human respiratory syncytial virus
X-box-binding protein 1 = target: T3, X-box-binding protein 1 (Homo sapiens, UniProt P17861); assay type: functional, Cricetulus griseus;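 note: confirmatory dose-response counter-screen serving a CHOP assay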
T3 sequence (P17861 whole entry): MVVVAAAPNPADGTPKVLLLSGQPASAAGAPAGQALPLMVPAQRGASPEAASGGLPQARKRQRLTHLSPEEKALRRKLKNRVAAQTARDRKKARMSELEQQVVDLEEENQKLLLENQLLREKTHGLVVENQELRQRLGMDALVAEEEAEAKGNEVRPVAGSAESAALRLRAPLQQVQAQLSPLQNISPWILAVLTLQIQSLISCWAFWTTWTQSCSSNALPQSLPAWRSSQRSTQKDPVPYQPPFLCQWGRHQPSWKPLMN

[6] = target: T4, Carboxy-terminal domain RNA polymerase II polypeptide A small phosphatase 1 (Homo sapiens, UniProt Q9GZU7); assay: CTDSP1 inhibitors, concentration-response, biochemical, absorbance readout, ultra-high-throughput screen actives (AID 540297); assay type: functional
T4 sequence (Q9GZU7 whole entry): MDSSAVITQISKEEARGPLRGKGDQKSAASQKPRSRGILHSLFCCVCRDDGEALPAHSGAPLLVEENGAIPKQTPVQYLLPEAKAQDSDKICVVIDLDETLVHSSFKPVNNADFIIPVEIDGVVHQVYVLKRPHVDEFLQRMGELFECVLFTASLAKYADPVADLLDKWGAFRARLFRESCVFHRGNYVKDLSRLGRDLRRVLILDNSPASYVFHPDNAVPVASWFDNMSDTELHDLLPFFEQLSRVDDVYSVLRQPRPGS

Cytochrome P450 2D6 = Cytochrome P450 2D6 (Homo sapiens, UniProt P10635);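 note: CYP2D6 member of a cytochrome P450 panel assay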
Sequence of Cytochrome P450 2D6 (P10635 whole entry): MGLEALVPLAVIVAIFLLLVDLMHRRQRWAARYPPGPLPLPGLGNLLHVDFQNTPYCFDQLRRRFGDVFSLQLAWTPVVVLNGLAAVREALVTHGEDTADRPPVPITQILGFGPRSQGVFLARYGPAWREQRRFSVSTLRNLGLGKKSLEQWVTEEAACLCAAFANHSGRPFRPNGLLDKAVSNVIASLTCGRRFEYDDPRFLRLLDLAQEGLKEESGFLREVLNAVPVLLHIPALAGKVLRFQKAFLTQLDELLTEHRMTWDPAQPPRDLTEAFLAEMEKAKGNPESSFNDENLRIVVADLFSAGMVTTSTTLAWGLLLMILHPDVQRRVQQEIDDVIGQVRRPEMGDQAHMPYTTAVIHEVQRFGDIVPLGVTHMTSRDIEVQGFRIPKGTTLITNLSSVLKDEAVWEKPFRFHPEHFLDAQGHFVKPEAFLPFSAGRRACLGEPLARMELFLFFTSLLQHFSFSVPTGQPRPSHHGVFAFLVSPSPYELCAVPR

Cytochrome P450 1A2 = target: T5, Cytochrome P450 1A2 (Homo sapiens, UniProt P05177);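 note: PubChem cytochrome P450 panel assay, CYP1A2 panel member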
T5 sequence (P05177 whole entry): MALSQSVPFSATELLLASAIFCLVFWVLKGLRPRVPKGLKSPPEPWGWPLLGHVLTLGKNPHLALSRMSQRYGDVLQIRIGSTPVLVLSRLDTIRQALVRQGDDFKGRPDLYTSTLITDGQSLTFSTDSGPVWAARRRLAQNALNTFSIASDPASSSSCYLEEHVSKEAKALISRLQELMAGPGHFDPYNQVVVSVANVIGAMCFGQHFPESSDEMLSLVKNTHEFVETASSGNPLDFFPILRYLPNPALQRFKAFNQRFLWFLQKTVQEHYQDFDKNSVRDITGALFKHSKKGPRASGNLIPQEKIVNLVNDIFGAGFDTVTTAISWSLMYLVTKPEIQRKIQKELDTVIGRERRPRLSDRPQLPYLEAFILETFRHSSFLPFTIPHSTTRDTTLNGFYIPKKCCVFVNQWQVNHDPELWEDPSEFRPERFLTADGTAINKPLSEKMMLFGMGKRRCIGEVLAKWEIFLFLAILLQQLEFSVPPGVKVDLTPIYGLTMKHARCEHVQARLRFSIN

Cytochrome P450 2C9 = Cytochrome P450 2C9 (Homo sapiens, UniProt P11712)
Sequence of Cytochrome P450 2C9 (P11712 whole entry): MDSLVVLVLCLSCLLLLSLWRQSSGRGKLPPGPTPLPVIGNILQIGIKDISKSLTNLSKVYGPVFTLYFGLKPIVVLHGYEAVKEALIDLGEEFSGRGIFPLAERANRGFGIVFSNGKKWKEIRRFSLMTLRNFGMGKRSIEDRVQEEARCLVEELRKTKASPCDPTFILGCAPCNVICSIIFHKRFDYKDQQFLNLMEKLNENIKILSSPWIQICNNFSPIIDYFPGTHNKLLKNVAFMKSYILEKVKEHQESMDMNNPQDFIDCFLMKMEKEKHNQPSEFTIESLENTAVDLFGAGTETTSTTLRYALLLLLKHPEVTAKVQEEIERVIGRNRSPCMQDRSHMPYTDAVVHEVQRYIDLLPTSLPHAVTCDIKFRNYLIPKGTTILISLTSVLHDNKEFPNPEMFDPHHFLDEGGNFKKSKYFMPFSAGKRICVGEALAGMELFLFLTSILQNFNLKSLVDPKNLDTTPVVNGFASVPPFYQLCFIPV

[7] = target: T6, Voltage-gated N-type calcium channel alpha-1B subunit/Amyloid beta A4 precursor protein-binding family A member 1 (Homo sapiens, UniProt Q00975+Q02410); assay type: protein assay
T6 sequence (Q00975 whole entry): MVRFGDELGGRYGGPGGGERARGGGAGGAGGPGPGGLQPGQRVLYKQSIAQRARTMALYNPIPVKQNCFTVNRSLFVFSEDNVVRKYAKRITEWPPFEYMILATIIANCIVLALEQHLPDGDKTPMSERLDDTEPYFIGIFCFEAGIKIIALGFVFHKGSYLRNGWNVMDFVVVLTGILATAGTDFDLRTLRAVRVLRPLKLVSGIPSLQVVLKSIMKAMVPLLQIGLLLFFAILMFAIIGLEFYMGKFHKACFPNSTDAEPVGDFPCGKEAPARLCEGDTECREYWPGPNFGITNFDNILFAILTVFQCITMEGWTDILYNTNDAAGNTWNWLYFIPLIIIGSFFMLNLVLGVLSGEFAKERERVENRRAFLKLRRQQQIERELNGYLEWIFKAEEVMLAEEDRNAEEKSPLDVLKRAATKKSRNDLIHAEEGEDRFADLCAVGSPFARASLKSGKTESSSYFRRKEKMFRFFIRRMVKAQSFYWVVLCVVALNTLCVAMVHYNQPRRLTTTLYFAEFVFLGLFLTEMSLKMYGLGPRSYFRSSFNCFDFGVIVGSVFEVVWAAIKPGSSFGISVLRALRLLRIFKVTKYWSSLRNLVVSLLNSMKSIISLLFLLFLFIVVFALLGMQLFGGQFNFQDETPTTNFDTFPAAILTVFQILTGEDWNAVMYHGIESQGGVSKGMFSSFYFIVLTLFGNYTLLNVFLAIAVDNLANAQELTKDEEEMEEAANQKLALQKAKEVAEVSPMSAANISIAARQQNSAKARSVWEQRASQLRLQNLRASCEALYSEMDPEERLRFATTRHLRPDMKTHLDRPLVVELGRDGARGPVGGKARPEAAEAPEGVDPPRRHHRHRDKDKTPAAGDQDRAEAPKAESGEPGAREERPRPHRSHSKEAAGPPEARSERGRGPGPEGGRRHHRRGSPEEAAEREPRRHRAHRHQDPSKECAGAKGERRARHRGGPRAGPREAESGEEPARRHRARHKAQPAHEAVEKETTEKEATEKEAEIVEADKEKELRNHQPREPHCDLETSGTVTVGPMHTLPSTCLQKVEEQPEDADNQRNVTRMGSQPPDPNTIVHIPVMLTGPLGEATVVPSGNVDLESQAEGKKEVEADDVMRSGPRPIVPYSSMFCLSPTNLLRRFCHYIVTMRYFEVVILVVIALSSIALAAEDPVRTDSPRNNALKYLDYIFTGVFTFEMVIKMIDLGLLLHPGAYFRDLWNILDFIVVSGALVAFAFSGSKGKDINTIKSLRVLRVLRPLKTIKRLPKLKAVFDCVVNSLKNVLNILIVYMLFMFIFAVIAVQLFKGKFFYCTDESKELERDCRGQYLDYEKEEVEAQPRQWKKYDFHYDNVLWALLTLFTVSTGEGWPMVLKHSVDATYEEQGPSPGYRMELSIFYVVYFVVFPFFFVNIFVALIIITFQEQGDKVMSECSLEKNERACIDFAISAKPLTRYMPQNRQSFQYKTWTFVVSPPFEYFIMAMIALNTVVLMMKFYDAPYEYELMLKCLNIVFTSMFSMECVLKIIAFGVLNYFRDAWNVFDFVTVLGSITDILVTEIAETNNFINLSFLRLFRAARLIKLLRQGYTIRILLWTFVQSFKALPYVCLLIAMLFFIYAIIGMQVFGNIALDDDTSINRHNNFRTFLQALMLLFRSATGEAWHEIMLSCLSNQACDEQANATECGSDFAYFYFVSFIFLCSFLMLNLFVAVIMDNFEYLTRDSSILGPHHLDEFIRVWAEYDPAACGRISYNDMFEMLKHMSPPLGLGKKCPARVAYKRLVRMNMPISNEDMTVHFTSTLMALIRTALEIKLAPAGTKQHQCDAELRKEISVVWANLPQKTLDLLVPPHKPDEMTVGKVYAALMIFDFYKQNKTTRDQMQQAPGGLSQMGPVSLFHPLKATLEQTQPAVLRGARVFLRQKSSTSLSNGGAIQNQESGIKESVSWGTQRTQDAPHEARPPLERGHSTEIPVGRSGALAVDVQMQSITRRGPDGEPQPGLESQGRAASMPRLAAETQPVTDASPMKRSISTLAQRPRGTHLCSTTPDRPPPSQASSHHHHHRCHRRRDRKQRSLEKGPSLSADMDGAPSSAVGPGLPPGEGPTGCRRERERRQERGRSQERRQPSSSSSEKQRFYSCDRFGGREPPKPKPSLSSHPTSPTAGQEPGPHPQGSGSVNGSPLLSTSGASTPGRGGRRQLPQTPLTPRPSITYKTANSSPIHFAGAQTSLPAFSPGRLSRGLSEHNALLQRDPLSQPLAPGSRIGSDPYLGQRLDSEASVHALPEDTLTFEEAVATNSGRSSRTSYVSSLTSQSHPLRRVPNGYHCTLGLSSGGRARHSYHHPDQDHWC
T6 sequence (Q02410 whole entry): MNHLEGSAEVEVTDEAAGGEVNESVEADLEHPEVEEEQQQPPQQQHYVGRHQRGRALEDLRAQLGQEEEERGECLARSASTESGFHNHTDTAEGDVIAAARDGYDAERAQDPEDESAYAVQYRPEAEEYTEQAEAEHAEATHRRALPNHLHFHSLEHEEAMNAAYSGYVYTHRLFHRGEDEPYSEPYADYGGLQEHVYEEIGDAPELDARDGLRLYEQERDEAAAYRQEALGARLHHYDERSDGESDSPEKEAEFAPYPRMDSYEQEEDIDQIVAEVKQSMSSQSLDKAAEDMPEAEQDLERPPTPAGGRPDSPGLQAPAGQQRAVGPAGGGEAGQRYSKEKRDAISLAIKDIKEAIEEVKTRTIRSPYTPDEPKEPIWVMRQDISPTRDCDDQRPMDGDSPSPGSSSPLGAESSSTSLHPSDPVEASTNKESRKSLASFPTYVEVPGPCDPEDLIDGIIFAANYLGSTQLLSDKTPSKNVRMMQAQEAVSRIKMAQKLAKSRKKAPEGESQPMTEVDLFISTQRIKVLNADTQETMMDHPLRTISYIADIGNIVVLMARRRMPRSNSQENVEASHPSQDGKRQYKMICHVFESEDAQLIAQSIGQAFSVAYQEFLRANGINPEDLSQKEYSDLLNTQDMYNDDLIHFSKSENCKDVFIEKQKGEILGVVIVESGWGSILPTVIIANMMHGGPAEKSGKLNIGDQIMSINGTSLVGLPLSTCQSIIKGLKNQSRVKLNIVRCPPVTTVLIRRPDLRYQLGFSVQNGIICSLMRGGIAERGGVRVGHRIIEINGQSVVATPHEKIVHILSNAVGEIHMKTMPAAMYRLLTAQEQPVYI

Aminopeptidase N = target: T7, Aminopeptidase N (Plasmodium falciparum FcB1/Columbia, UniProt O96935); assay: malaria alanyl aminopeptidase activity blockers – biochemical, fluorogenic H-Leu-NHMec substrate, 1536-well (AID 1445); design: species or system Plasmodium falciparum 3D7, 3D7
T7 sequence (O96935 whole entry): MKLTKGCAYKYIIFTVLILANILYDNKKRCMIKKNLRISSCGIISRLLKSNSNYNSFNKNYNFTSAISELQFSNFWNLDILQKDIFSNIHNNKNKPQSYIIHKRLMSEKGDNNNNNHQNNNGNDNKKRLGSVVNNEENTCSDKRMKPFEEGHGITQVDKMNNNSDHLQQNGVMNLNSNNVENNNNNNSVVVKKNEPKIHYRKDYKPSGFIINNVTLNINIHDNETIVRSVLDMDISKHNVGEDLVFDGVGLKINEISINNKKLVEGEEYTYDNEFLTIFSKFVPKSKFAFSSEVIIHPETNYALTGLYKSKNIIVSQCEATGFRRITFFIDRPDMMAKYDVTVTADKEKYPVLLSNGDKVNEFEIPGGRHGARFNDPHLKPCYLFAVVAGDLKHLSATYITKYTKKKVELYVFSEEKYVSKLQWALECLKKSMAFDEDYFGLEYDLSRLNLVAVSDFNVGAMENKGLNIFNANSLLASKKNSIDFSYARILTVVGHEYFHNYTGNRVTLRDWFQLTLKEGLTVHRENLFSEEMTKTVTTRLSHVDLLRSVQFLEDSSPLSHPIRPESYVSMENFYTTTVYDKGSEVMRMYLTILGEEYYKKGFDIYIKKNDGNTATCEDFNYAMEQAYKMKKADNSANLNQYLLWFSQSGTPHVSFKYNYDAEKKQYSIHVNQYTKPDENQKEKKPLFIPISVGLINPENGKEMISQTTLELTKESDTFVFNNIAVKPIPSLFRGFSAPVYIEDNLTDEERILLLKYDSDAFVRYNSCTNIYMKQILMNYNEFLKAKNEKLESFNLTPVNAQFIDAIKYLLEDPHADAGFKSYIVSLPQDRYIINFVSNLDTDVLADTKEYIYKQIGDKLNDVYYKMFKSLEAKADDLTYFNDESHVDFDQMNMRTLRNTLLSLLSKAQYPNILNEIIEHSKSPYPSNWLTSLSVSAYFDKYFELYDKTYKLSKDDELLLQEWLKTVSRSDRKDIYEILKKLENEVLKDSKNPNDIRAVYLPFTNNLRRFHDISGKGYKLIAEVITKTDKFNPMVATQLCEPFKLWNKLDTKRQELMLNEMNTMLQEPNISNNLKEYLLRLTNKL

[8] = target: T6, Voltage-gated N-type calcium channel alpha-1B subunit/Amyloid beta A4 precursor protein-binding family A member 1; assay type: protein assay; remark: listed apart in the source
[9] = target: Induced myeloid leukemia cell differentiation protein Mcl-1 (Homo sapiens, UniProt Q07820); assay type: functional
Sequence of Induced myeloid leukemia cell differentiation protein Mcl-1 (Q07820 whole entry): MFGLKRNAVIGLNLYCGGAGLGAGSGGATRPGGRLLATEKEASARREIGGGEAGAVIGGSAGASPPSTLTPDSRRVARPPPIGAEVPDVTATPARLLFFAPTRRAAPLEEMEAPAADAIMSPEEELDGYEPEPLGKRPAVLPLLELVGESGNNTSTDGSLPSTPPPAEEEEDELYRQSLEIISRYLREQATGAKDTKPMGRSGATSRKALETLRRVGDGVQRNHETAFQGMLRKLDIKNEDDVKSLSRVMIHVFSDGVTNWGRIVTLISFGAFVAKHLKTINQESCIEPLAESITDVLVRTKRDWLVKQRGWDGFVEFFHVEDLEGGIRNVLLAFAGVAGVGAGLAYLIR

Row | Structure (SMILES) | IC50 (cells) | EC50 [2] | CC50 [3] | EC50 (Streptococcus) | EC50 (Streptokinase A) | further results
1 | O=C(CC(=O)c1cc(Cl)ccc1O)c1ccccc1 | 9.73 µM (active) | 1.08 µM (active) | 14.6 µM (active) | 10.8 µM (active) | > 150 µM (not active) | CC50 [1]: 8.73 µM (active)
2 | O=C(Nc1nc2ccccc2[nH]1)c1cccc(Cl)c1 | 7.11 µM (active) | 8.88 µM (active) | > 40 µM (active) | 69.4 µM (active) | > 150 µM (not active) | CC50 [1]: > 20 µM (active)
3 | Fc1ccc(-c2nn(-c3ccccc3)cc2CNCc2ccccc2)cc1 | 21.6 µM (active) |  | 26 µM (active) |  |  | EC50 [4]: 5.31 µM (active); CC50 [5]: 17.9 µM (active); Absolute IC50 (XBP1) (X-box-binding protein 1): 10 µM
4 | CCc1ccc(Nc2nnc(SCC(=O)NC(=O)CN3CCCC3=O)s2)cc1 |  |  |  |  |  | IC50 [6]: 15 µM (active)
5 | O=[N+]([O-])c1ccc(Cl)c(/C=N/N2CCN(Cc3ccccc3Cl)CC2)c1 |  |  |  |  |  | AC50 (Cytochrome P450 2D6): 7.94 µM (inconclusive); AC50 (Cytochrome P450 1A2): 2.51 µM (inconclusive); AC50 (Cytochrome P450 2C9): inconclusive
6 | COCCn1c(=O)c(C)nc2cnc(N3CCN(C)CC3)nc21 |  |  |  |  |  | AC50 (Cytochrome P450 2C9): inconclusive
7 | COc1ccc(C(=O)Nc2cccc(/C=C(\CCC(=O)O)c3nc4ccccc4s3)c2)cc1 |  | 7.83 µM (active) |  | 22.9 µM (active) | > 50 µM (not active) | IC50 [7]: 4.28 µM (active); IC50 (Aminopeptidase N): 21.8 µM (active); IC50 [8]: > 50 µM (inactive); IC50 [9]: 4.32 µM (active)
